Data published in US6875451B2, “Compositions and methods for the treatment of primary and metastatic neoplastic diseases using arsenic compounds” (PolaRx Biopharmaceuticals Inc., priority 1997, dated 2005).
Like-named read-outs stand apart in the source and are kept apart here.

Key:
refractory APL = details: 14 of 15 patients with refractory APL; intravenous 10 mg/day for 4-9 weeks; cited from earlier work
RPMI-8226 = assay: SRB growth assay, 2 days exposure, leukemia; type: cell-based
Experimental: (§1) Arsenic trioxide (1 mg/ml, 10 mg/ampoule, manufactured by Taylor Pharmaceuticals, Decatur, Ill.) was tested at five concentrations each at 10-fold dilutions, i.e., 10^−5, 10^−6, 10^−7, 10^−8 and 10^−9 μg/ml.
(§2) The in vitro tests were performed by incubating the test cells in the presence of the indicated concentration of arsenic trioxide under standard culture conditions for a designated period of time, which is followed by a sulforhodamine B (SRB) protein assay to estimate cell viability or growth. The cell lines are organized into subpanels according to the origin of the cell lines, e.g., leukemia, breast cancer, etc. A description of the cell lines and method of testing is described in Monk et al. (1997, Anticancer Drug Des. 12:533-41) and Weinstein et al., (1997, Science 275:343-9), which are incorporated herein in their entirety.
(§3) The measurement of an effect is expressed in Percentage Growth (PG). The measured effect of the compound on a cell line is calculated according to one or the other of the following two expressions: If (Mean ODtest−Mean ODzero)≧0. then PG=100×(Mean ODtest−Mean ODzero)/(Mean ODctrl−Mean ODzero) If (Mean ODtest−Mean ODzero)<0. then PG=100×(Mean ODtest−Mean ODzero)/(Mean ODzero where: • Mean ODzero=the average of optical density measurements of SRB-derived color just before exposure of cells to the test compounds; • Mean ODtest=the average of optical density measurements of SRB-derived color after exposure of cells to the test compound for a designated period of time; and • Mean ODctrl=the average of optical density measurements of SRB-derived color after with no exposure of cells to the test compound for a designated period of time
(§4) The first two columns describe the subpanel (e.g., leukemia) and cell line (e.g., CCRF-CEM) involved. The next two columns list the Mean ODzero and Mean ODctrl; the next five columns list the Mean ODtest for each of five different concentrations. Each concentration is expressed as the log10 (molar or μg/ml). The next five columns list the calculated PGs for each concentration. The response parameters GI50, TGI and LC50 are interpolated values representing the concentrations at which the PG is +50, 0, and −50, respectively. Sometimes these response parameters cannot be obtained by interpolation. If, for instance, all of the PGs in a given row exceed +50, then none of the three parameters can be obtained by interpolation. In such a case, the value given for each response parameter is the highest concentration tested and is preceded by a “>” sign. This practice is extended similarly to the other possible situations where a response parameter cannot be obtained by interpolation.
(§5) In the first set, the cells from 56 different cancer cell lines were exposed to five concentrations of arsenic trioxide continuously for two days prior to performing the SRB assay. In the second set, the cells from 50 different cell lines (a subset of the first 56 cell lines, plus the renal cancer cell line 786-0) were exposed continuously for six days prior to the SRB assay.

K-562 = assay: SRB growth assay, 2 days exposure, leukemia; type: cell-based
Experimental: as §1, §2, §3, §4, §5

CCRF-CEM = assay: SRB growth assay, 2 days exposure, leukemia; type: cell-based
Experimental: as §1, §2, §3, §4, §5

SR = assay: SRB growth assay, 2 days exposure, leukemia; type: cell-based
Experimental: as §1, §2, §3, §4, §5

SK-MEL-2 = assay: SRB growth assay, 2 days exposure, melanoma; type: cell-based
Experimental: as §1, §2, §3, §4, §5

M14 = assay: SRB growth assay, 2 days exposure, melanoma; type: cell-based
Experimental: as §1, §2, §3, §4, §5

MALME-3M = assay: SRB growth assay, 2 days exposure, melanoma; type: cell-based
Experimental: as §1, §2, §3, §4, §5

UACC-257 = assay: SRB growth assay, 2 days exposure, melanoma; type: cell-based
Experimental: as §1, §2, §3, §4, §5

SK-MEL-28 = assay: SRB growth assay, 2 days exposure, melanoma; type: cell-based
Experimental: as §1, §2, §3, §4, §5

LOX IMVI = assay: SRB growth assay, 2 days exposure, melanoma; type: cell-based
Experimental: as §1, §2, §3, §4, §5

SK-MEL-5 = assay: SRB growth assay, 2 days exposure, melanoma; type: cell-based
Experimental: as §1, §2, §3, §4, §5

UACC-62 = assay: SRB growth assay, 2 days exposure, melanoma; type: cell-based
Experimental: as §1, §2, §3, §4, §5

HL-60(TB) = type: cell-based; details: 2 days

For arsenic trioxide, the clinical efficacy (refractory APL) is given as “complete morphologic remission without associated bone marrow suppression”, the TGI (RPMI-8226) is given as 0.00723 ng/mL and the “Percent Growth” value (RPMI-8226; log10 conc −4.9) is given as −21%. For the same substance, the “Percent Growth” value (RPMI-8226; log10 conc −5.9) was 65%, the “Percent Growth” value (RPMI-8226; log10 conc −6.9) was 87% and the “Percent Growth” value (RPMI-8226; log10 conc −7.9) was 93%. For the same substance, the “Percent Growth” value (RPMI-8226; log10 conc −8.9) was 96%, the TGI (K-562) was 0.011 ng/mL and the “Percent Growth” value (K-562; log10 conc −4.9) was −5%. The “Percent Growth” value (K-562; log10 conc −5.9) was 76%, the “Percent Growth” value (K-562; log10 conc −6.9) was 100% and the “Percent Growth” value (K-562; log10 conc −7.9) was 101%. For the same substance, the “Percent Growth” value (K-562; log10 conc −8.9) was 98%, the TGI (CCRF-CEM) was 0.01 ng/mL and the “Percent Growth” value (CCRF-CEM; log10 conc −4.9) was −5%. For the same substance, the “Percent Growth” value (CCRF-CEM; log10 conc −5.9) was 47%, the “Percent Growth” value (CCRF-CEM; log10 conc −6.9) was 98% and the “Percent Growth” value (CCRF-CEM; log10 conc −7.9) was 105%. The “Percent Growth” value (CCRF-CEM; log10 conc −8.9) was 106%, the TGI (SR) was 0.00585 ng/mL and the “Percent Growth” value (SR; log10 conc −4.9) was −30%. The “Percent Growth” value (SR; log10 conc −5.9) was 60%, the “Percent Growth” value (SR; log10 conc −6.9) was 100% and the “Percent Growth” value (SR; log10 conc −7.9) was 89%. For the same substance, the “Percent Growth” value (SR; log10 conc −8.9) was 99%, the TGI (SK-MEL-2) was 0.00881 ng/mL and the “Percent Growth” value (SK-MEL-2; log10 conc −4.9) was −17%. The “Percent Growth” value (SK-MEL-2; log10 conc −5.9) was 91%, the “Percent Growth” value (SK-MEL-2; log10 conc −6.9) was 110% and the “Percent Growth” value (SK-MEL-2; log10 conc −7.9) was 103%. The “Percent Growth” value (SK-MEL-2; log10 conc −8.9) was 113%, the TGI (M14) was greater than 0.0126 ng/mL and the “Percent Growth” value (M14; log10 conc −4.9) was 3%. For the same substance, the “Percent Growth” value (M14; log10 conc −5.9) was 87%, the “Percent Growth” value (M14; log10 conc −6.9) was 96% and the “Percent Growth” value (M14; log10 conc −7.9) was 105%. For the same substance, the “Percent Growth” value (M14; log10 conc −8.9) was 98%, the TGI (MALME-3M) was 0.00602 ng/mL and the “Percent Growth” value (MALME-3M; log10 conc −4.9) was −42%. For the same substance, the “Percent Growth” value (MALME-3M; log10 conc −5.9) was 90%, the “Percent Growth” value (MALME-3M; log10 conc −6.9) was 102% and the “Percent Growth” value (MALME-3M; log10 conc −7.9) was 123%. For the same substance, the “Percent Growth” value (MALME-3M; log10 conc −8.9) was 138%, the TGI (UACC-257) was greater than 0.0126 ng/mL and the “Percent Growth” value (UACC-257; log10 conc −4.9) was 40%. For the same substance, the “Percent Growth” value (UACC-257; log10 conc −5.9) was 88%, the “Percent Growth” value (UACC-257; log10 conc −6.9) was 104% and the “Percent Growth” value (UACC-257; log10 conc −7.9) was 97%. For the same substance, the “Percent Growth” value (UACC-257; log10 conc −8.9) was 101%, the TGI (SK-MEL-28) was greater than 0.0126 ng/mL and the “Percent Growth” value (SK-MEL-28; log10 conc −4.9) was 6%. The “Percent Growth” value (SK-MEL-28; log10 conc −5.9) was 94%, the “Percent Growth” value (SK-MEL-28; log10 conc −6.9) was 101% and the “Percent Growth” value (SK-MEL-28; log10 conc −7.9) was 103%. The “Percent Growth” value (SK-MEL-28; log10 conc −8.9) was 100%, the TGI (LOX IMVI) was greater than 0.0126 ng/mL and the “Percent Growth” value (LOX IMVI; log10 conc −4.9) was 13%. For the same substance, the “Percent Growth” value (LOX IMVI; log10 conc −5.9) was 73%, the “Percent Growth” value (LOX IMVI; log10 conc −6.9) was 71% and the “Percent Growth” value (LOX IMVI; log10 conc −7.9) was 88%. For the same substance, the “Percent Growth” value (LOX IMVI; log10 conc −8.9) was 89%, the TGI (SK-MEL-5) was greater than 0.0126 ng/mL and the “Percent Growth” value (SK-MEL-5; log10 conc −4.9) was 0%. The “Percent Growth” value (SK-MEL-5; log10 conc −5.9) was 78%, the “Percent Growth” value (SK-MEL-5; log10 conc −6.9) was 95% and the “Percent Growth” value (SK-MEL-5; log10 conc −7.9) was 97%. The “Percent Growth” value (SK-MEL-5; log10 conc −8.9) was 96%, the TGI (UACC-62) was greater than 0.0126 ng/mL and the “Percent Growth” value (UACC-62; log10 conc −4.9) was 6%. For the same substance, the “Percent Growth” value (UACC-62; log10 conc −5.9) was 96%, the “Percent Growth” value (UACC-62; log10 conc −6.9) was 103% and the “Percent Growth” value (UACC-62; log10 conc −7.9) was 103%. The “Percent Growth” value (UACC-62; log10 conc −8.9) was 104%, the TGI (HL-60(TB)) was 0.0103 ng/mL and the “Percent Growth” value (HL-60(TB); log10 conc −4.9) was −9%. The “Percent Growth” value (HL-60(TB); log10 conc −5.9) was 90%, the “Percent Growth” value (HL-60(TB); log10 conc −6.9) was 102% and the “Percent Growth” value (HL-60(TB); log10 conc −7.9) was 92%. The “Percent Growth” value (HL-60(TB); log10 conc −8.9) was 101%.
